We go through 33 compounds from patent US8969565B2, “Imidazo[1,2-b]pyridazine-based compounds, compositions comprising them, and methods of their use” (Lexicon Pharmaceuticals, Inc., priority 2012, dated 2015).

The target of the assay is T1, AAK1 (Homo sapiens, UniProt Q2M2I8).
T1 construct: HA; expressed in transfected cells; host or cells: HEK293F
The assay is described as follows: HEK281 cell-based assay (phospho-mu2 Western blot in transfected HEK293F cells). The note with it: 3 hours incubation, read-out: CBA IC50. How it is done:
HEK293F cells were cultured in media containing DMEM (Gibco, cat. #11965), 10% FBS (SAFC Biosciences, cat. #12103C), 1×GPS (glutamine, penicillin and streptomycin). On day one, cells were plated on a 10 cm dish so that they are ˜80% confluent at time of transfection. Roughly 12 million cells were in a 10 cm dish at time of transfection. On day two, each dish was transfected with 48 ug DNA and 144 ul Lipofectamine 2000 (Invitrogen, cat.#11668-019). The DNA was comprised of a mixture (per 10 cm dish) containing 3 ug AAK1/HA/pIRES (full length human, NCBI accession no. NP_055726.2), 45 μg Flag/AP2MI/pcDNA (full length human), and 1.5 ml OPTI-MEM. The Lipofectamine 2000 is made up of a mixture (per 10 cm dish) containing 144 μl Lipofectamine 2000 and 1.5 ml OPTI-MEM. Each mixture was transferred to individual 15 ml tubes and incubated at RT for 5 minutes, and then the two mixes were combined and incubated at RT for 20 minutes. Growth media was then aspirated from each 10 cm plate and replaced with 10 ml of DMEM+10% FBS (no GPS). Finally, 3 ml DNA/Lipofectamine mix was added to each 10 cm dish and mix gently followed by incubate of plate overnight at 37° C. and 5% CO2.
On day three, compounds were diluted in 100% DMSO at 1000× final concentration, followed by 3-fold serial dilutions for a total of 5 concentrations tested. Four compounds were tested per 10 cm dish. One ul of each compound dilution was then pipetted into a deep-well, 96-well plate, followed by addition of 500 μl DMEM+0.5% FBS into each well for a 2× final concentration of each compound. Cells were resuspended in a 10 cm dish by simple pipetting (HEK293 cells come off the plate that easy at this point) and then transferred to a 50 ml conical tube and pelleted by centrifugation at 1000 rpm for 5 min. Cell pellets were then resuspended in 2.75 ml DMEM+0.5% FBS per 10 cm dish and 100 μl of cell suspension transferred into each well of 96-well TC plate. Finally, 100 μl of 2× compound diluted in DMEM+0.5% FBS was then added into wells containing cell suspension for a 1× final concentration. Plates were then incubated at 37° C. and 5% CO2 for 3 hours followed by transferring of cell suspensions from each well into 12-tube PCR strips. The PCR strips were spun in a tip rack at 1000 rpm for 5 minutes to pellet cells and media was then removed by pipetting without disturbing the cell pellet.
To prepare for Western Blot analysis, cell pellets were resuspend in 40 ul 1×LDS-PAGE sample buffer (Invitrogen, cat.#NP0008)+2× Halt phophatase and protease inhibitor cocktail (Thermo Scientific, cat.#1861284), followed by sonicating each with microtip sonicator set at 5 for 8-10 seconds. Five ul of 10× NuPage Sample Reducing Agent (with 50 mM DTT) was to each sample followed by heat denaturing at 70 C for 10 min on PCR machine. A total of 10 μl per sample was loaded into each lane of a 4-20% Tris-Glycine Criterion 26-well gel (Biorad, cat.#345-0034) for the phospho-mu2 blot and 10 μl per lane in a 4-12% Bis-Tris (+MES buffer) NuPAGE 26-well gel (Invitrogen, cat.#WG1403BX10) for the mu2 blot. For controls, 2 ng of phospho-mu2 or 20 ng mu2/Flag proteins were loaded in the last well of each gel. After SDS-PAGE, samples on each gel were transferred to PVDF membrane using an iBlot and membranes were blocked for one hour in TBST+5% milk, followed by wash 3× for 5-10 min with TBST. Criterion gels were probed with rabbit anti-phospho-mu2 (1:5000; a rabbit polyclonal antibody produced by New England Peptide and affinity purified at Lexicon) in TBST+5% BSA, whereas, NuPAGE gels were probed with mouse anti-Flag (1:500; Sigma, cat.#F1804) in TBST+5% milk, and these primary antibodies were incubated overnight at 4° C. on a rocker.
Background: In western blotting, separated proteins are transferred to a membrane and probed.

The structures appear in SMILES notation.

T1 sequence (Q2M2I8 1-863 isoform Q2M2I8-2): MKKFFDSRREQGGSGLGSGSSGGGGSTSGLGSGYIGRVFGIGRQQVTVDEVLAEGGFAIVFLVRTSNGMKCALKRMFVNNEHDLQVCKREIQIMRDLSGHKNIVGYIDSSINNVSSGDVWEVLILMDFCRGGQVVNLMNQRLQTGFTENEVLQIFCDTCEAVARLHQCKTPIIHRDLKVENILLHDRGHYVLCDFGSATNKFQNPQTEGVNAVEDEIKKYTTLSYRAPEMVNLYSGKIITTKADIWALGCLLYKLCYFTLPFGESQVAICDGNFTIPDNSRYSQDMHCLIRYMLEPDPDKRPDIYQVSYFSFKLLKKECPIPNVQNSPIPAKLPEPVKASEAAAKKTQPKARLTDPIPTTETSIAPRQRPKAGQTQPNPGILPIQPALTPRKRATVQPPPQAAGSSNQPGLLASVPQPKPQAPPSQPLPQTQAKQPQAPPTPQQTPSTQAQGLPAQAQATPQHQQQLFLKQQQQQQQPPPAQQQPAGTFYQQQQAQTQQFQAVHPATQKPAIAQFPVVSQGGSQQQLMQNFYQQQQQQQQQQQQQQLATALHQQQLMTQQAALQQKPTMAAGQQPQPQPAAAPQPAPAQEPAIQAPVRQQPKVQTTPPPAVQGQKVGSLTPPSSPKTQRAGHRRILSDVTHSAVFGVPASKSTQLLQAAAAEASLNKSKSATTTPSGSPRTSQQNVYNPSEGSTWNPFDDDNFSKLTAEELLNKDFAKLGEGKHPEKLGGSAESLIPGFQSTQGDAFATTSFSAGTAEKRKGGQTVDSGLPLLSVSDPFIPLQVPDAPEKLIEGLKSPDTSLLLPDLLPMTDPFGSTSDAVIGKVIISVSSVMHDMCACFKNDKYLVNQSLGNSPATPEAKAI

On to `CCC(C)CNc1ccc2ncc(-c3ccc(CN)cc3)n2n1` (stereo not drawn) [3-(4-(aminomethyl)phenyl)-N-(2-methylbutyl)imidazo[1,2-b]pyridazin-6-amine], for which the IC50 (commonly the concentration at which inhibition is half-maximal) was at most 1000 nM.

On to `NCc1ccc(-c2cnc3ccc(NCCOc4ccccc4)nn23)cc1` [3-(4-(aminomethyl)phenyl)-N-(2-phenoxyethyl)imidazo[1,2-b]pyridazin-6-amine], for which the half-maximal inhibitory concentration (IC50) is at most 1000 nM.

Turning to `CC(C)(C)CCNc1ccc2ncc(-c3ccc(CN)cc3)n2n1` [3-(4-(aminomethyl)phenyl)-N-(3,3-dimethylbutyl)imidazo[1,2-b]pyridazin-6-amine], the half-inhibitory concentration (IC50) is at most 100 nM.

For the compound `NCc1ccc(-c2cnc3ccc(NCCCc4ccccc4F)nn23)cc1` [3-(4-(aminomethyl)phenyl)-N-(3-(2-fluorophenyl)propyl)imidazo[1,2-b]pyridazin-6-amine], the concentration for half-maximal inhibition (IC50) was at most 100 nM.

For the compound `NCc1ccc(-c2cnc3ccc(NCCCc4cccc(F)c4)nn23)cc1` [3-(4-(aminomethyl)phenyl)-N-(3-(3-fluorophenyl)propyl)imidazo[1,2-b]pyridazin-6-amine], the IC50 is at most 100 nM.

For the compound `NCc1ccc(-c2cnc3ccc(NCCCc4ccc(F)cc4)nn23)cc1` [3-(4-(aminomethyl)phenyl)-N-(3-(4-fluorophenyl)propyl)imidazo[1,2-b]pyridazin-6-amine], the half-inhibitory concentration (IC50) is at most 100 nM.

Turning to `NCc1ccc(-c2cnc3ccc(NCCCOC4CCCC4)nn23)cc1` [3-(4-(aminomethyl)phenyl)-N-(3-(cyclopentyloxy)propyl)imidazo[1,2-b]pyridazin-6-amine], the IC50 was at most 100 nM.

For the compound `CC(C)(C)OCCCNc1ccc2ncc(-c3ccc(CN)cc3)n2n1` [3-(4-(aminomethyl)phenyl)-N-(3-(tert-butoxy)propyl)imidazo[1,2-b]pyridazin-6-amine], the IC50 is at most 100 nM.

Consider `NCc1ccc(-c2cnc3ccc(NCCc4cccc(C(F)(F)F)c4)nn23)cc1` [3-(4-(aminomethyl)phenyl)-N-(3-(trifluoromethyl)phenethyl)imidazo[1,2-b]pyridazin-6-amine], for which the 50% inhibitory concentration (IC50) was at most 100 nM.

Take `NCc1ccc(-c2cnc3ccc(NCCc4cccc(F)c4)nn23)cc1` [3-(4-(aminomethyl)phenyl)-N-(3-fluorophenethyl)imidazo[1,2-b]pyridazin-6-amine]: the IC50 is at most 100 nM.

Consider `NCc1ccc(-c2cnc3ccc(NCCCF)nn23)cc1` [3-(4-(aminomethyl)phenyl)-N-(3-fluoropropyl)imidazo[1,2-b]pyridazin-6-amine], for which the 50% inhibitory concentration (IC50) is at most 1000 nM.

As to `COc1cccc(CCNc2ccc3ncc(-c4ccc(CN)cc4)n3n2)c1` [3-(4-(aminomethyl)phenyl)-N-(3-methoxyphenethyl)imidazo[1,2-b]pyridazin-6-amine], the IC50 is at most 100 nM.

With `NCc1ccc(-c2cnc3ccc(NCCCCF)nn23)cc1` [3-(4-(aminomethyl)phenyl)-N-(4-fluorobutyl)imidazo[1,2-b]pyridazin-6-amine], the half-maximal inhibitory concentration (IC50) was at most 100 nM.

On to `NCc1ccc(-c2cnc3ccc(NCCc4ccc(F)cc4)nn23)cc1` [3-(4-(aminomethyl)phenyl)-N-(4-fluorophenethyl)imidazo[1,2-b]pyridazin-6-amine], for which the IC50 is at most 1000 nM.

On to `COc1ccc(CCNc2ccc3ncc(-c4ccc(CN)cc4)n3n2)cc1` [3-(4-(aminomethyl)phenyl)-N-(4-methoxyphenethyl)imidazo[1,2-b]pyridazin-6-amine], for which the 50% inhibitory concentration (IC50) is at most 100 nM.

Take `NCc1ccc(-c2cnc3ccc(NCCCCc4ccccc4)nn23)cc1` [3-(4-(aminomethyl)phenyl)-N-(4-phenylbutyl)imidazo[1,2-b]pyridazin-6-amine]: the IC50 was at most 100 nM.

Turning to `NCc1ccc(-c2cnc3ccc(NCCCCCF)nn23)cc1` [3-(4-(aminomethyl)phenyl)-N-(5-fluoropentyl)imidazo[1,2-b]pyridazin-6-amine], the IC50 was at most 1000 nM.

`NCc1ccc(-c2cnc3ccc(NCC4CCOC4)nn23)cc1` (stereo not drawn) [3-(4-(aminomethyl)phenyl)-N-((tetrahydrofuran-3-yl)methyl)imidazo[1,2-b]pyridazin-6-amine]: the IC50 was at most 1000 nM.

Regarding `NCc1ccc(-c2cnc3ccc(NCC4CCC4)nn23)cc1` [3-(4-(aminomethyl)phenyl)-N-(cyclobutylmethyl)imidazo[1,2-b]pyridazin-6-amine], the half-maximal inhibitory concentration (IC50) was at most 1000 nM.

For the compound `NCc1ccc(-c2cnc3ccc(NCC4CCCC4)nn23)cc1` [3-(4-(aminomethyl)phenyl)-N-(cyclopentylmethyl)imidazo[1,2-b]pyridazin-6-amine], the IC50 was at most 1000 nM.

Take `NCc1ccc(-c2cnc3ccc(NCC4CC4)nn23)cc1` [3-(4-(aminomethyl)phenyl)-N-(cyclopropylmethyl)imidazo[1,2-b]pyridazin-6-amine]: the IC50 was at most 1000 nM.

Consider `CC(C)CNc1ccc2ncc(-c3ccc(CN)cc3)n2n1` [3-(4-(aminomethyl)phenyl)-N-isobutylimidazo[1,2-b]pyridazin-6-amine], for which the IC50 was at most 1000 nM.

In the case of `CC(C)CCNc1ccc2ncc(-c3ccc(CN)cc3)n2n1` [3-(4-(aminomethyl)phenyl)-N-isopentylimidazo[1,2-b]pyridazin-6-amine], the IC50 is at most 1000 nM.

For the compound `CC(C)(C)CNc1ccc2ncc(-c3ccc(CN)cc3)n2n1` [3-(4-(aminomethyl)phenyl)-N-neopentylimidazo[1,2-b]pyridazin-6-amine], the IC50 was at most 100 nM.

For the compound `CCCCCNc1ccc2ncc(-c3ccc(CN)cc3)n2n1` [3-(4-(aminomethyl)phenyl)-N-pentylimidazo[1,2-b]pyridazin-6-amine], the half-inhibitory concentration (IC50) was at most 1000 nM.

As to `NCc1ccc(-c2cnc3ccc(NCCc4ccccc4)nn23)cc1` [3-(4-(aminomethyl)phenyl)-N-phenethylimidazo[1,2-b]pyridazin-6-amine], the IC50 is at most 1000 nM.

As for `CCCNc1ccc2ncc(-c3ccc(CN)cc3)n2n1` [3-(4-(aminomethyl)phenyl)-N-propylimidazo[1,2-b]pyridazin-6-amine], the concentration for half-maximal inhibition (IC50) is at most 1000 nM.

As for `CC(C)OC(=O)N1CCN(c2ccc3ncc(-c4ccccc4)n3n2)CC1` [4-(3-Phenyl-imidazo[1,2-b]pyridazin-6-yl)-piperazine-1-carboxylic acid isopropyl ester], the 50% inhibitory concentration (IC50) was at most 100 nM.

`CN(CCNc1ccc2ncc(-c3ccc(C(N)=O)cc3)n2n1)C(=O)CC(C)(C)C` [4-(6-((2-(N,3,3-trimethylbutanamido)ethyl)amino)imidazo[1,2-b]pyridazin-3-yl)benzamide]: the IC50 is at most 100 nM.

For the compound `CCN(CC)CCNC(=O)c1ccc(-c2cnc3ccc(NCCOC(C)(C)C)nn23)cc1` [4-(6-((2-(tert-butoxy)ethyl)amino)imidazo[1,2-b]pyridazin-3-yl)-N-(2-(diethylamino)ethyl)benzamide], the half-maximal inhibitory concentration (IC50) is at most 100 nM.

In the case of `CNC(=O)c1ccc(-c2cnc3ccc(NCCOC(C)(C)C)nn23)cc1` [4-(6-((2-(tert-butoxy)ethyl)amino)imidazo[1,2-b]pyridazin-3-yl)-N-methylbenzamide], the IC50 was at most 100 nM.

In the case of `NC(=O)c1ccc(-c2cnc3ccc(NCCc4ccccc4OC(F)(F)F)nn23)cc1` [4-(6-((2-(trifluoromethoxy)phenethyl)amino)imidazo[1,2-b]pyridazin-3-yl)benzamide], the IC50 is at most 10 nM.

Turning to `CCOc1ccccc1CCNc1ccc2ncc(-c3ccc(C(=O)NC)cc3)n2n1` [4-(6-((2-ethoxyphenethyl)amino)imidazo[1,2-b]pyridazin-3-yl)-N-methylbenzamide], the half-inhibitory concentration (IC50) is at most 10 nM.
